Experimental data taken from patent publication US7977349B2, “Substituted quinolones III” (Aicuris GmbH & Co. KG, priority 2006, dated 2011).
Counter-ions that a name gives are not always drawn.

How the values were obtained:
HCMV = assay: Anti-HCMV (anti-human cytomegalovirus) cytopathogenicity test; format: cell-based; details: concentration inhibiting the CPE by 50% vs untreated virus control, HCMV-infected NHDF cells, 6 days, visual assessment
Description: Anti-HCMV (Anti-Human Cytomegalovirus) Cytopathogenicity Tests The test compounds are employed as 50 millimolar (mM) solutions in dimethyl sulfoxide (DMSO). Ganciclovir®, Foscarnet® and Cidofovir® are used as reference compounds. After the addition of 2 μl of the 50, 5, 0.5 and 0.05 mM DMSO stock solutions respectively to 98 μl portions of cell culture medium in row […] for duplicate determinations, 1:2 dilutions are carried out with 50 μl portions of medium up to row 11 of the 96-well plate. The wells in rows 1 and 12 each contain 50 μl of medium. 150 μl of a suspension of 1×10^4 cells (human prepuce fibroblasts [NHDF]) are then pipetted into each of the wells (row 1=cell control) and, in rows 2-12, a mixture of HCMV-infected and uninfected NHDF cells (M.O.I.=0.001-0.002), i.e. 1-2 infected cells per 1000 uninfected cells. Row 12 (without substance) serves as virus control. The final test concentrations are 250-0.0005 μM. The plates are incubated at 37° C./5% CO2 for 6 days, i.e. until all the cells in the virus controls are infected (100% cytopathogenic effect [CPE]). The wells are then fixed and stained by adding a mixture of formalin and Giemsa's dye (30 minutes), washed with double-distilled water and dried in a drying oven at 50° C. The plates are then assessed visually using an overhead microscope (plaque multiplier from Technomara). The following data can be obtained from the test plates: EC50 (HCMV)=substance concentration in μM which inhibits the CPE (cytopathic effect) by 50% compared with the untreated virus control;

[1] = Cytostatic effects on NHDF cells in the anti-HCMV cytopathogenicity test; format: cell-based, human; details: human, concentration at which no visible cytostatic effects on NHDF cells are evident vs untreated cell control
Description: (§1) Anti-HCMV (Anti-Human Cytomegalovirus) Cytopathogenicity Tests The test compounds are employed as 50 millimolar (mM) solutions in dimethyl sulfoxide (DMSO). Ganciclovir®, Foscarnet® and Cidofovir® are used as reference compounds. After the addition of 2 μl of the 50, 5, 0.5 and 0.05 mM DMSO stock solutions respectively to 98 μl portions of cell culture medium in row […] for duplicate determinations, 1:2 dilutions are carried out with 50 μl portions of medium up to row 11 of the 96-well plate. The wells in rows 1 and 12 each contain 50 μl of medium. 150 μl of a suspension of 1×10^4 cells (human prepuce fibroblasts [NHDF]) are then pipetted into each of the wells (row 1=cell control) and, in rows 2-12, a mixture of HCMV-infected and uninfected NHDF cells (M.O.I.=0.001-0.002), i.e. 1-2 infected cells per 1000 uninfected cells. Row 12 (without substance) serves as virus control. The final test concentrations are 250-0.0005 μM. The plates are incubated at 37° C./5% CO2 for 6 days, i.e. until all the cells in the virus controls are infected (100% cytopathogenic effect [CPE]). The wells are then fixed and stained by adding a mixture of formalin and Giemsa's dye (30 minutes), washed with double-distilled water and dried in a drying oven at 50° C. The plates are then assessed visually using an overhead microscope (plaque multiplier from Technomara). The following data can be obtained from the test plates: CC50 (NHDF)=substance concentration in μM at which no visible cytostatic effects on the cells are evident compared with the untreated cell control;

[2] = system: NHDF (human prepuce fibroblasts); assay: as above; format: cell-based; details: concentration at which no visible cytostatic effects on NHDF cells are evident vs untreated cell control; 6 days
Description: as §1

[3] = Human betaherpesvirus 5, NHDF, 144 h

Row | EC50 (HCMV; [3]) [µM] | EC50 (HCMV) [µM] | SMILES | CC50 at 6 days [1] [µM] | CC50 [2] [µM]
1 | 0.014 | – | COc1c(N2CCC3(CC2)CNC(=O)C3)c(F)cc2c(=O)c(C(=O)NCc3ccc(OC(F)(F)F)cc3Cl)cn(CC(F)(F)F)c12 [Example 36] | 21 | –
2 | 0.004 | – | COc1c(N2CCC(C(=O)O)CC2)c(F)cc2c(=O)c(C(=O)NCc3ccc(OC(F)(F)F)cc3C)cn(CC(F)(F)F)c12 [Example 47, 1-[6-Fluoro-8-methoxy-3-({[2-methyl-4-(trifluoromethoxy)benzyl]amino}carbonyl)-4-oxo-1-(2,2,2-trifluoroethyl)-1,4-dihydroquinolin-7-yl]piperidine-4-carboxylic acid] | 86 | –
3 | 0.003 | – | COc1c(N2CCC(C(=O)O)CC2)c(F)cc2c(=O)c(C(=O)NCc3ccc(OC(F)(F)F)cc3Cl)cn(CC(F)(F)F)c12 [Example 48, 1-[3-({[2-Chloro-4-(trifluoromethoxy)benzyl]amino}carbonyl)-6-fluoro-8-methoxy-4-oxo-1-(2,2,2-trifluoroethyl)-1,4-dihydroquinolin-7-yl]piperidine-4-carboxylic acid] | 20 | –
4 | 0.006 | – | COc1c(N2CCC(C(=O)O)CC2)c(F)cc2c(=O)c(C(=O)NCc3ccc(OC(F)(F)F)cc3C)cn(CCF)c12 [Example 49, 1-[6-Fluoro-1-(2-fluoroethyl)-8-methoxy-3-({[2-methyl-4-(trifluoromethoxy)benzyl]amino}carbonyl)-4-oxo-1,4-dihydroquinolin-7-yl]piperidine-4-carboxylic acid] | 94 | –
5 | 0.012 | – | COc1c(N2CCC(C(=O)O)CC2)c(F)cc2c(=O)c(C(=O)NCc3ccc(Cl)cc3Cl)cn(CC(F)(F)F)c12 [Example 50, 1-[3-{[(2,4-Dichlorobenzyl)amino]carbonyl}-6-fluoro-8-methoxy-4-oxo-1-(2,2,2-trifluoroethyl)-1,4-dihydroquinolin-7-yl]piperidine-4-carboxylic acid] | 47 | –
6 | 0.026 | – | COc1c(N2CCCC(CC(=O)O)C2)c(F)cc2c(=O)c(C(=O)NCc3ccc(Cl)cc3Cl)cn(CC(F)(F)F)c12 (stereo not drawn) [Example 51, [3-{[(2,4-Dichlorobenzyl)amino]carbonyl}-6-fluoro-8-methoxy-4-oxo-1-(2,2,2-trifluoroethyl)-1,4-dihydroquinolin-7-yl]piperidin-3-ylacetic acid] | 47 | –
7 | 0.005 | – | COc1c(N2CCC(CC(=O)O)CC2)c(F)cc2c(=O)c(C(=O)NCc3ccc(OC(F)(F)F)cc3C)cn(CC(F)(F)F)c12 [Example 53, [6-Fluoro-8-methoxy-3-({[2-methyl-4-(trifluoromethoxy)benzyl]amino}carbonyl)-4-oxo-1-(2,2,2-trifluoroethyl)-1,4-dihydroquinolin-7-yl]piperidin-4-ylacetic acid] | 94 | –
8 | 0.022 | – | COc1c(N2CCC(C(=O)O)CC2)c(F)cc2c(=O)c(C(=O)NCc3ccc(C(F)(F)F)cc3C)cn(CC(F)(F)F)c12 [Example 54] | 21 | –
9 | 0.031 | – | COc1ccc(CNC(=O)c2cn(CC(F)(F)F)c3c(OC)c(N4CCC(C(=O)O)CC4)c(F)cc3c2=O)c(Cl)c1 [Example 55] | 16 | –
10 | 0.026 | – | COc1c(N2CCC(C(=O)O)CC2)c(F)cc2c(=O)c(C(=O)NCc3c(C)cc(Cl)cc3Cl)cn(CC(F)(F)F)c12 [Example 57] | 23 | –
11 | 0.006 | – | COc1c(N2CCC(C(=O)O)CC2)c(F)cc2c(=O)c(C(=O)NCc3ccc(Cl)cc3C)cn(CC(F)(F)F)c12 [Example 58] | 47 | –
12 | 0.007 | – | COc1c(N2CCC(C(=O)O)CC2)c(F)cc2c(=O)c(C(=O)NCc3ccc(OC(F)(F)F)cc3C)cn(C3CCC3)c12 [Example 61] | 21 | –
13 | 0.001 | – | COc1c(N2CCC(C(=O)O)CC2)c(F)cc2c(=O)c(C(=O)NCc3ccc(OC(F)(F)F)cc3C)cn(CC(F)F)c12 [Example 62] | 148 | –
14 | 0.008 | – | COc1c(N2CCC(C(=O)O)CC2)c(F)cc2c(=O)c(C(=O)NCc3ccc(OC(F)(F)F)cc3C)cn([C@@H]3C[C@@H]3F)c12 [Example 63] | 47 | –
15 | 0.079 | – | COc1c(N2CCC(C(=O)O)CC2)c(F)cc2c(=O)c(C(=O)NCc3ccc(OC(F)(F)F)cc3C)cn(C(C)CF)c12 (stereo not drawn) [Example 65] | 106 | –
16 | 0.061 | – | COc1c(N2CCC(CC(=O)O)CC2)c(F)cc2c(=O)c(C(=O)NCc3ccc(Cl)cc3C)cn(C3CC3)c12 [Example 67] | 21 | –
17 | 0.003 | – | COc1c(N2CCC[C@H](CC(=O)O)C2)c(F)cc2c(=O)c(C(=O)NCc3ccc(OC(F)(F)F)cc3C)cn(CC(F)(F)F)c12 [Example 73, {(3R)-1-[6-Fluoro-8-methoxy-3-({[2-methyl-4-(trifluoromethoxy)benzyl]amino}carbonyl)-4-oxo-1-(2,2,2-trifluoroethyl)-1,4-dihydroquinolin-7-yl]piperidin-3-yl}acetic acid] | 47 | –
18 | – | 0.002 | COc1c(N2CCC(C(=O)O)CC2)c(F)cc2c(=O)c(C(=O)NCc3ccc(OC(F)(F)F)cc3C)cn(CC(F)(F)F)c12 [Example 75, 1-[6-Fluoro-8-methoxy-3-({[2-methyl-4-(trifluoromethoxy)benzyl]amino}carbonyl)-4-oxo-1-(2,2,2-trifluoroethyl)-1,4-dihydroquinolin-7-yl]piperidine-4-carboxylic acid diethanolamine salt] | – | 47
19 | – | 0.002 | COc1c(N2CCC(C(=O)O)CC2)c(F)cc2c(=O)c(C(=O)NCc3ccc(OC(F)(F)F)cc3C)cn(CC(F)(F)F)c12 [Example 76, 1-[6-Fluoro-8-methoxy-3-({[2-methyl-4-(trifluoromethoxy)benzyl]amino}carbonyl)-4-oxo-1-(2,2,2-trifluoroethyl)-1,4-dihydroquinolin-7-yl]piperidine-4-carboxylic acid choline salt] | – | 47
20 | 0.006 | – | Cc1cc(OC(F)(F)F)ccc1CNC(=O)c1cn(CC(F)(F)F)c2c(O)c(N3CCC(C(=O)O)CC3)c(F)cc2c1=O [Example 77, 1-[6-Fluoro-8-hydroxy-3-({[2-methyl-4-(trifluoromethoxy)benzyl]amino}carbonyl)-4-oxo-1-(2,2,2-trifluoroethyl)-1,4-dihydroquinolin-7-yl]piperidine-4-carboxylic acid] | 250 | –
21 | 0.002 | – | CCOc1c(N2CCC(C(=O)O)CC2)c(F)cc2c(=O)c(C(=O)NCc3ccc(OC(F)(F)F)cc3C)cn(CC(F)(F)F)c12 [Example 79, 1-[8-Ethoxy-6-fluoro-3-({[2-methyl-4-(trifluoromethoxy)benzyl]amino}carbonyl)-4-oxo-1-(2,2,2-trifluoroethyl)-1,4-dihydroquinolin-7-yl]piperidine-4-carboxylic acid] | 125 | –
